The values below are quoted from earlier work in patent publication US20110052686A1, “MODIFIED RELEASE LAMOTRIGINE TABLETS” (RANBAXY LABORATORIES LIMITED, priority 2009, published 2011).

SMILES strings stand for the structures.

The conditions of this series: oral administration.

As to `Nc1nnc(-c2cccc(Cl)c2Cl)c(N)n1` [Lamotrigine, 3,5-diamino-6-(2,3-dichlorophenyl)-1,2,4-triazine], the “effect of food on bioavailability” value is “not affected by food”, the first-pass metabolism entry is “negligible first-pass metabolism” and the “time of peak plasma concentrations following drug administration” value is 1.4 to 4.8 h.
